Results as given in the SangsterLogP compilation.

Columns and labels:
[1] = method code SF-GLC, from DOI: 10.1021/je00020a050
[2] = not given; remark: listed apart in the source
[3] = method code SF-AS, from DOI: 10.1246/bcsj.63.3542
[4] = method code SF-GLC, from DOI: 10.1080/03086648508073361
[5] = method code SF-AS, from DOI: 10.1111/j.1440-1681.1976.tb00621.x, PMID: 10116
[6] = method code G-HPLC, from DOI: 10.6028/nbs.ir.81-2406
[7] = from Bazaco, J.; Coca, C. (1989). Relation between the partition coefficient (Log Pow) and capacity factor (Log k') derived from reversed-phase HPLC of a series of benzaldehyde derivatives. Ciencia e …
[8] = not given; remark: listed apart in the source
[9] = method code SF, from Dai, J-Y.; Han, S.; Wang, L. (2000). Prediction of partition properties of substituted benzaldehydes using different structural parameters. Zhongguo Huanjing Kexue (China Environmental Science), …
[10] = not given; remark: listed apart in the source
[11] = method code SF, from DOI: 10.1016/0360-3016(89)90912-7, PMID: 2703384; conditions: pH 7.4
[12] = method code SF, from DOI: 10.1016/0360-3016(92)90876-j, PMID: 1735696; conditions: pH 7.4
[13] = method code SF-AS, from DOI: 10.1016/0378-5173(82)90004-7; conditions: pH 3.0
[14] = method code SF-AS, from DOI: 10.1248/cpb.40.925
[15] = not given; remark: listed apart in the source
[16] = not given; remark: listed apart in the source
[17] = method code SF-AS, from DOI: 10.1248/cpb.35.377
[18] = not given; remark: listed apart in the source
[19] = method code SF, from DOI: 10.1002/jps.2600830714, PMID: 7965679
[20] = method code SF-HPLC, from DOI: 10.1016/0378-5173(82)90005-9; conditions: pH 3.0
[21] = not given; remark: listed apart in the source
[22] = not given; remark: listed apart in the source
[23] = method code SF-AS, from DOI: 10.1002/ps.2780110406
[24] = not given; remark: listed apart in the source
[25] = not given; remark: listed apart in the source
[26] = not given; remark: listed apart in the source
[27] = method code SF, from DOI: 10.1034/j.1399-3011.2003.00037.x, PMID: 12492901; conditions: pH 2.0
[28] = method code SF-AS, from DOI: 10.1021/j150653a049
[29] = not given; remark: listed apart in the source
[30] = not given; remark: listed apart in the source
[31] = method code SF-HPLC, from DOI: 10.1016/0378-5173(85)90010-9; conditions: pH 4.0
[32] = method code SF-AS, from DOI: 10.1021/jm00254a011, PMID: 4845376
[33] = method code SF, from DOI: 10.1039/p29920000723

COc1c(Cl)c(Cl)c(Cl)c(Cl)c1OC
logP [1]: 4.86

COc1ccccn1
logP: 1.23

On1nc2ccccc2n1
logP [2]: 0.69

CN(C)C(=O)c1ccccn1
logP [3]: -0.45

CCN(CC)P(=O)(N(CC)CC)N1CCCC1
logP [4]: 2.39

CCC(Br)(CC)C(=O)NC(N)=O
logP [5]: 1.54

Fc1ccc(CCl)cc1
logP [6]: 2.73

O=Cc1ccc(F)cc1
logP [7]: 1.54

OCc1ccc(Br)cc1
logP [8]: 2.15

CN(C)C(=O)c1cnccn1
logP [3]: -0.8

CCOc1ccc(C=O)cc1
logP [9]: 2.09

O=C(O)c1ccc(I)cc1
logP [10]: 3.13

O=[N+]([O-])c1cn(CC(F)CO)cn1 (stereo not given)
logD [11]: -0.8

CN(O)C(=O)Cn1ccnc1[N+](=O)[O-]
logD [12]: -0.74

COCC(F)Cn1cnc([N+](=O)[O-])c1 (stereo not given)
logD [11]: -0.04

COc1cc2c(c(OC)c1OC)-c1ccc(O)c(=O)cc1[C@@H](NC(C)=O)CC2
logP [2]: 1.03

Nc1c(F)cc(F)cc1F
logP [8]: 1.81

NC(=O)c1ccccc1Cl
logP: 0.94

CC(C)=CCC1(C(C)(C)C)C(=O)NC(=O)NC1=O
logD [13]: 2.56

COC(=O)c1ccc(Br)o1
logP [14]: 1.84

CONC(=O)CCCn1ccnc1[N+](=O)[O-]
logD [12]: -0.74

CC(C)(C)C1CCC(O)CC1 (stereo not given)
logP [15]: 3.09

Cc1cc(=O)n(-c2ccc(Cl)cc2)cc1C(=O)O
logP [16]: 4.1

COc1ccccc1C=O
logP [7]: 1.72

CCOc1cc(C=O)ccc1O
logP [7]: 1.58

Nc1ccccc1C(=O)O
logP [17]: 1.13

NC(=S)Nc1cccc2ccccc12
logP [18]: 1.66

COc1ccc(Cl)c(Cl)c1Cl
logP [1]: 4.03

CCN(CC)P(=O)(N(C)C)N(C)C
logP [4]: 0.66

COc1cc(Cl)c(Cl)c(Cl)c1OC
logP [1]: 4.01

O=NN(CCCl)C(=O)N[C@@H](Cc1ccccc1)C(=O)O
logP [19]: -0.28

O=C(O)c1cc(C(F)(F)F)nc2ccccc12
logP [16]: 3.14

O=C1NC(=O)C2(CCCCCCC2)C(=O)N1
logD [20]: 1.79

O=C(CCCn1ccnc1[N+](=O)[O-])NO
logD [12]: -1.11

Cc1cc(C)c(O)c(C)c1
logP [6]: 2.73

Brc1ccsc1Br
logP [18]: 3.53

CC(C)n1ccc(=O)c(O)c1
logP [21]: -0.02

CCCCC1C(=O)N(c2ccccc2)N(c2ccc(O)cc2)C1=O (stereo not given)
logP [22]: 3.04

OCc1ccccc1F
logP [8]: 1.3

CCOP(=O)(NC(C)C)Oc1ccc(SC)c(C)c1 (stereo not given)
logP [23]: 3.18

OC1CCCCC1
logP [24]: 1.36

Oc1ccc(Cl)cc1Cl
logP [25]: 3.12

CC(C)C(Br)C(=O)NC(N)=O (stereo not given)
logP [5]: 1.14

CCc1cc(CC)c(OC)c(C(=O)O)c1OC
logP [10]: 2.98

Oc1cc(Cl)c(Cl)c(Cl)c1O
logP [26]: 3.56

CC(=O)N[C@@H](Cc1c[nH]c2ccccc12)C(=O)O
logD [27]: 0.57

O=C(O)c1snc(Cl)c1Cl
logP [16]: 1.44

O=[N+]([O-])c1nccn1CC(F)CO (stereo not given)
logD [11]: -0.38

OCc1c(Cl)cccc1Cl
logP [17]: 2.02

OCc1ccccc1O
logP [28]: 0.56

O=c1cc(-c2ccccc2)oc2ccc3ccccc3c12
logP [18]: 4.94

Cc1ccc(Cl)cc1Cl
logP [26]: 4.09

CSc1ccc(C=C2C(C)=C(CC(=O)O)c3cc(F)ccc32)cc1
logP [22]: 4.76

OCc1cc(Cl)cc(Cl)c1O
logP [28]: 2.3

O=C(O)c1cc([N+](=O)[O-])cc([N+](=O)[O-])c1
logD [27]: 1.75

O=S1CCCC1
logP [22]: -0.96

CC(C)(C)O
logP [29]: 0.34

COC(=O)c1c[nH]c2ccccc12
logP [14]: 2.57

Nc1ccc(Cl)cc1Cl
logP [30]: 2.64

CC1(C)C(=O)NC(=O)NC1=O
logD [13]: -0.44

CN(C)C(=O)n1cc(F)c(=O)[nH]c1=O
logD [31]: -0.37

O=NN(CCCl)C(=O)NCC(=O)O
logP [19]: -1.25

CC(C)Oc1ccc(C=O)cc1
logP [9]: 2.3

Oc1ccccc1O
logP [25]: 1.1

Clc1cc(Cl)c(Cl)c(Cl)c1
logP [23]: 4.68

Oc1c(O)c(Cl)c(Cl)c(Cl)c1Cl
logP [26]: 4.12

Cc1ccc(O)c(C)c1
logP [29]: 2.48

CC(C)=CCC1(C(C)C)C(=O)NC(=O)NC1=O
logD [13]: 2.23

OCc1cc(Cl)ccc1O
logP [28]: 1.44

Nc1nc(C=Cc2ccc([N+](=O)[O-])o2)no1
logP [32]: 1.3

CC(C)NC(=O)C=Cc1ncc([N+](=O)[O-])s1
logP [32]: 1.76

O=Cc1ccc(Br)cc1
logP [9]: 2.75

CCCCC(O)CCC (stereo not given)
logP [15]: 2.68

O=[N+]([O-])c1ccc(N2CCNC2=S)o1
logP [32]: 0.98

CCCCNC(=O)n1cc(F)c(=O)[nH]c1=O
logD [31]: 1.44

CC(=O)OCC(=O)[C@H]1CC[C@H]2[C@@H]3CCC4=CC(=O)CC[C@]4(C)[C@H]3CC[C@]12C
logP [2]: 3.08

Cn1ccc(=O)c(O)c1
logP [21]: -0.7

CNC(=S)NCC(F)(F)C(F)(F)C(F)(F)F
logP [33]: 2.39

O=C(Nc1ccccc1)n1cc(F)c(=O)[nH]c1=O
logD [31]: 1.5

CCCCC(C)O (stereo not given)
logP [15]: 1.76

CC(=O)OCC1OC(OC(C)=O)C(NC(=O)C(C)NC(=O)N(CCCl)N=O)C(OC(C)=O)C1OC(C)=O (stereo not given)
logP [19]: 0.71

CC(C)C(Cl)C(=O)NC(N)=O (stereo not given)
logP [5]: 1

CC(C(=O)O)c1ccc(C(=O)c2cccs2)cc1 (stereo not given)
logP [10]: 2.83

CCCC(C)=O
logP [24]: 0.95

CCOP(=S)(OCC)Oc1cccc(F)n1
logP [23]: 3.51

ClCc1cccc(CCl)c1
logP [30]: 2.72

CCS(=O)(=O)NC(=O)CCc1ccccc1
logP [33]: 1.67

O=C(O)CNc1ccc([N+](=O)[O-])cc1[N+](=O)[O-]
logD [27]: 1.56

ClC(Cl)=C(Cl)C(Cl)=C(Cl)Cl
logP [30]: 4.74

CCCn1ccc(=O)c(O)c1
logP [21]: -0.17

COC(=O)c1cc2ccccc2o1
logP [14]: 2.53

c1ccc2cc3c(ccc4ccccc43)cc2c1
logP: 5.93

CN(C)P(=O)(N(C)C)N(C)C
logP [4]: 0.09

N#CCCCCOC(=O)c1ccccc1
logP [33]: 2.05

Cc1c2ccccc2c(C)c2c1ccc1ccccc12
logP [24]: 6.16

Clc1ccc(-c2ccccc2)cc1Cl
logP [29]: 5.11

OCc1ccccc1Cl
logP [17]: 1.77

CNc1cnccn1
logP [3]: 0.56

Cc1ccc(O)cc1
logP [25]: 2.03

Cc1c(C)c(C)c(C)c(C)c1C
logP [6]: 4.61
